{"source": "ChEMBL document CHEMBL1147226", "about": "“dd-diketopiperazines: antibiotics active against Vibrio anguillarum isolated from marine bacteria associated with cultures of Pecten maximus” (2003)"}
{"test_system": "Vibrio anguillarum", "assay": "Antimicrobial activity against Vibrio anguillarum after 24 to 48 hrs", "format": "functional", "units": {"MIC": "µg/mL"}}
{"compound": "CC(C)C[C@H]1NC(=O)[C@@H](C(C)C)NC1=O", "MIC": 0.05}
{"compound": "CC[C@@H](C)[C@H]1NC(=O)[C@@H]2CCCN2C1=O", "MIC": 0.11}
{"compound": "O=C1N[C@@H](Cc2ccccc2)C(=O)N2CCC[C@H]12", "MIC": 0.1}
{"compound": "CC(C)[C@@H]1NC(=O)[C@H]2CCCN2C1=O", "MIC": 0.11}
{"compound": "CC[C@@H](C)[C@@H]1NC(=O)[C@H]2CCCN2C1=O", "MIC": 0.12}
{"compound": "CC(C)[C@H]1NC(=O)[C@H]2CCCN2C1=O", "MIC": 0.05}
{"compound": "CC(C)C[C@H]1NC(=O)[C@H]2CCCN2C1=O", "MIC": 0.04}
{"compound": "O=C1N[C@H](Cc2ccccc2)C(=O)N2C[C@H](O)C[C@H]12", "MIC": 0.07}
{"compound": "CC(C)[C@H]1NC(=O)[C@@H]2CCCN2C1=O", "MIC": 0.14}
{"compound": "CC(C)C[C@@H]1NC(=O)[C@H]2CCCN2C1=O", "MIC": 0.13}
{"compound": "O=C1N[C@H](Cc2ccccc2)C(=O)N2CCC[C@H]12", "MIC": 0.03}
{"compound": "CC(C)C[C@H]1NC(=O)[C@@H]2CCCN2C1=O", "MIC": 0.12}
{"compound": "O=C1N[C@H](Cc2ccccc2)C(=O)N2CCC[C@@H]12", "MIC": 0.13}
{"compound": "CC(C)C[C@H]1NC(=O)[C@@H](Cc2cnc[nH]2)NC1=O", "MIC": 0.07}
{"compound": "CC[C@@H](C)[C@H]1NC(=O)[C@H]2CCCN2C1=O", "MIC": 0.05}
